12 compounds from PubChem BioAssay (NCI) can be followed below.

“And” between values parts separate entries of the source, which are not always exact repeats. Equal entries are not always repeated.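 A five-concentration, 48-hour dose response in 96-well plates underlies each endpoint, interpolated linearly between surrounding concentrations. GI50 marks 50% less growth. Definition used: TGI = concentration required for complete inhibition of growth.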

One experiment concerns 786-0 renal. Description: NCI anticancer screen, dose series, 48 h.
On to `C[C@@H]1CN(Cc2ccc(F)cc2)[C@@H](C)CN1C(=O)c1cc2c(C(=O)C(=O)N(C)C)cn(C)c2cc1Cl`, for which the GI50 was 21.2 µM and the TGI was 67.1 µM.

As for `O=C1c2cccnc2C(=O)c2c1c(C(=O)NCCCN1CCCCC1)c1ccccn21`, the GI50 is 1.18 µM and the TGI came out at 8.06 µM.

`COc1ccccc1-c1cc(=O)c2cc(C)cnc2[nH]1`: the GI50 was 41.4 µM and the TGI was above 100 µM.

As to `OCC1OC(n2cnc3c(N/N=C\c4ccccn4)ncnc32)C(O)C1O` (stereo not given), the GI50 is 0.256 µM and the TGI is 1.01 µM.

Regarding `NNC(=O)CS(=O)(=O)Nc1ncccn1`, the TGI is above 100 µM.

On to `COc1cccc(OC(=O)c2ccc(C(F)(F)F)nc2Nc2cc(Cl)ccc2C)c1`, for which the GI50 is 10.7 µM and the TGI turned out to be 24.5 µM.

Turning to `COc1cc2c(cc1OCCCn1c(-c3ccccn3)nc3ccccc31)N=C[C@@H]1CCCN1C2=O`, the GI50 was 2.76 µM and the TGI came to 10.9 µM.

With `c1cnn2ncc(-c3ccnc(NCCCN4CCOCC4)n3)c2c1`, the GI50 is 8.63 µM and the TGI is above 25 µM.

`O=C(Nc1ccc(OCc2nnc(-c3ccc(Cl)cc3)o2)c(F)c1)Nc1ccc(Cl)c(C(F)(F)F)c1`: the GI50 is 2.05 µM and the TGI is 5.1 µM.

In the case of `O=C1NC(=O)C(N2C(=O)c3ccccc3C2=O)CC1O` (stereo not given), the GI50 is above 100 µM and the TGI is above 100 µM.

Take `COc1ccc2c(c1)N(CCO)C1=C(C(=O)OC1)C2c1cccc(F)c1` (stereo not given): the GI50 is 0.644 µM and the TGI is above 50 µM.

Turning to `C=CC(=O)Nc1cccc(Oc2nc(Nc3ccc(N4CCN(C)CC4)cc3)nc3ccsc23)c1`, the GI50 is 1.3 µM and 2.07 µM; the TGI is 3.25 µM and 4.62 µM.

A further experiment concerns BT-549 breast. Kind of experiment: NCI anticancer screen, dose series, 48 h.
As to `C[C@@H]1CN(Cc2ccc(F)cc2)[C@@H](C)CN1C(=O)c1cc2c(C(=O)C(=O)N(C)C)cn(C)c2cc1Cl`, the GI50 is 15.2 µM and the TGI was 41.8 µM.

Consider `O=C1c2cccnc2C(=O)c2c1c(C(=O)NCCCN1CCCCC1)c1ccccn21`, for which the GI50 was 2.47 µM and the TGI amounted to 6.89 µM.

The compound `COc1ccccc1-c1cc(=O)c2cc(C)cnc2[nH]1` had a TGI above 100 µM.

As to `OCC1OC(n2cnc3c(N/N=C\c4ccccn4)ncnc32)C(O)C1O` (stereo not given), the GI50 was 0.256 µM and the TGI worked out at 23 µM.

In the case of `NNC(=O)CS(=O)(=O)Nc1ncccn1`, the TGI was above 100 µM.

On to `COc1cccc(OC(=O)c2ccc(C(F)(F)F)nc2Nc2cc(Cl)ccc2C)c1`, for which the GI50 was 7.63 µM and the TGI is 41.7 µM.

As for `COc1cc2c(cc1OCCCn1c(-c3ccccn3)nc3ccccc31)N=C[C@@H]1CCCN1C2=O`, the GI50 is 1.6 µM and the TGI was 4.87 µM.

Take `c1cnn2ncc(-c3ccnc(NCCCN4CCOCC4)n3)c2c1`: the GI50 is 7.5 µM and the TGI is above 25 µM.

On to `O=C(Nc1ccc(OCc2nnc(-c3ccc(Cl)cc3)o2)c(F)c1)Nc1ccc(Cl)c(C(F)(F)F)c1`, for which the GI50 is 3.06 µM and the TGI came to 11 µM.

Consider `O=C1NC(=O)C(N2C(=O)c3ccccc3C2=O)CC1O` (stereo not given), for which the GI50 is above 100 µM and the TGI is above 100 µM.

Take `COc1ccc2c(c1)N(CCO)C1=C(C(=O)OC1)C2c1cccc(F)c1` (stereo not given): the GI50 is 0.761 µM and the TGI was above 14.4 µM.

For `C=CC(=O)Nc1cccc(Oc2nc(Nc3ccc(N4CCN(C)CC4)cc3)nc3ccsc23)c1`, the GI50 is 2.8 µM and 3.62 µM; the TGI is > 10 µM and 14.6 µM.

Another experiment relates to HCT-116 colon. Description: NCI anticancer screen, dose series, 48 h.
As to `C[C@@H]1CN(Cc2ccc(F)cc2)[C@@H](C)CN1C(=O)c1cc2c(C(=O)C(=O)N(C)C)cn(C)c2cc1Cl`, the GI50 is 21.6 µM and the TGI was above 71.9 µM.

For `O=C1c2cccnc2C(=O)c2c1c(C(=O)NCCCN1CCCCC1)c1ccccn21`, the GI50 was 0.337 µM and the TGI is 1.22 µM.

On to `COc1ccccc1-c1cc(=O)c2cc(C)cnc2[nH]1`, for which the GI50 is 42.8 µM and the TGI was above 100 µM.

Regarding `OCC1OC(n2cnc3c(N/N=C\c4ccccn4)ncnc32)C(O)C1O` (stereo not given), the GI50 was 0.11 µM and the TGI stood at 10.8 µM.

In the case of `NNC(=O)CS(=O)(=O)Nc1ncccn1`, the TGI was above 100 µM.

As to `COc1cccc(OC(=O)c2ccc(C(F)(F)F)nc2Nc2cc(Cl)ccc2C)c1`, the GI50 is 16.9 µM and the TGI was 55.8 µM.

On to `COc1cc2c(cc1OCCCn1c(-c3ccccn3)nc3ccccc31)N=C[C@@H]1CCCN1C2=O`, for which the GI50 was 1.35 µM and the TGI worked out at 7.56 µM.

For `c1cnn2ncc(-c3ccnc(NCCCN4CCOCC4)n3)c2c1`, the GI50 is 7.25 µM and the TGI was above 25 µM.

With `O=C(Nc1ccc(OCc2nnc(-c3ccc(Cl)cc3)o2)c(F)c1)Nc1ccc(Cl)c(C(F)(F)F)c1`, the GI50 is 1.8 µM and the TGI turned out to be 6.16 µM.

Regarding `O=C1NC(=O)C(N2C(=O)c3ccccc3C2=O)CC1O` (stereo not given), the GI50 was above 100 µM and the TGI was above 100 µM.

On to `COc1ccc2c(c1)N(CCO)C1=C(C(=O)OC1)C2c1cccc(F)c1` (stereo not given), for which the GI50 was 0.406 µM and the TGI is above 50 µM.

Turning to `C=CC(=O)Nc1cccc(Oc2nc(Nc3ccc(N4CCN(C)CC4)cc3)nc3ccsc23)c1`, the GI50 was 1.48 µM and 1.81 µM; the TGI was 2.93 µM and 3.33 µM.

The test system of another experiment is HCT-15 colon. Description: NCI anticancer screen, dose series, 48 h.
As to `C[C@@H]1CN(Cc2ccc(F)cc2)[C@@H](C)CN1C(=O)c1cc2c(C(=O)C(=O)N(C)C)cn(C)c2cc1Cl`, the GI50 was 18.3 µM and the TGI was 47.3 µM.

As for `O=C1c2cccnc2C(=O)c2c1c(C(=O)NCCCN1CCCCC1)c1ccccn21`, the GI50 is 0.816 µM and the TGI worked out at 2.57 µM.

In turn, `COc1ccccc1-c1cc(=O)c2cc(C)cnc2[nH]1` yielded a TGI above 100 µM.

Regarding `OCC1OC(n2cnc3c(N/N=C\c4ccccn4)ncnc32)C(O)C1O` (stereo not given), the GI50 was 0.129 µM and the TGI is above 100 µM.

`NNC(=O)CS(=O)(=O)Nc1ncccn1` showed a TGI above 100 µM.

`COc1cccc(OC(=O)c2ccc(C(F)(F)F)nc2Nc2cc(Cl)ccc2C)c1`: the GI50 is 4.33 µM and the TGI is above 100 µM.

As for `COc1cc2c(cc1OCCCn1c(-c3ccccn3)nc3ccccc31)N=C[C@@H]1CCCN1C2=O`, the GI50 is 2.5 µM and the TGI turned out to be 9.92 µM.

Take `c1cnn2ncc(-c3ccnc(NCCCN4CCOCC4)n3)c2c1`: the GI50 is 8.01 µM and the TGI was above 25 µM.

As for `O=C(Nc1ccc(OCc2nnc(-c3ccc(Cl)cc3)o2)c(F)c1)Nc1ccc(Cl)c(C(F)(F)F)c1`, the GI50 was 2.03 µM and the TGI was 10.9 µM.

Turning to `O=C1NC(=O)C(N2C(=O)c3ccccc3C2=O)CC1O` (stereo not given), the GI50 was above 100 µM and the TGI was above 100 µM.

`COc1ccc2c(c1)N(CCO)C1=C(C(=O)OC1)C2c1cccc(F)c1` (stereo not given): the GI50 is 0.233 µM and the TGI was above 50 µM.

For the compound `C=CC(=O)Nc1cccc(Oc2nc(Nc3ccc(N4CCN(C)CC4)cc3)nc3ccsc23)c1`, the GI50 was 2.32 µM and 2.54 µM; the TGI was 9.5 µM and 10.6 µM.

The subject of the next experiment is NCI-H23 lung. Description: NCI anticancer screen, dose series, 48 h.
As for `C[C@@H]1CN(Cc2ccc(F)cc2)[C@@H](C)CN1C(=O)c1cc2c(C(=O)C(=O)N(C)C)cn(C)c2cc1Cl`, the GI50 is 19.6 µM and the TGI is 57.2 µM.

Consider `O=C1c2cccnc2C(=O)c2c1c(C(=O)NCCCN1CCCCC1)c1ccccn21`, for which the GI50 was 0.436 µM and the TGI came out at 2.75 µM.

With `COc1ccccc1-c1cc(=O)c2cc(C)cnc2[nH]1`, the TGI is above 100 µM.

Regarding `OCC1OC(n2cnc3c(N/N=C\c4ccccn4)ncnc32)C(O)C1O` (stereo not given), the GI50 is 0.476 µM and the TGI is above 100 µM.

Compound `NNC(=O)CS(=O)(=O)Nc1ncccn1` displayed a TGI above 100 µM.

Regarding `COc1cccc(OC(=O)c2ccc(C(F)(F)F)nc2Nc2cc(Cl)ccc2C)c1`, the GI50 is 20.2 µM and the TGI was found to be 49.5 µM.

Turning to `COc1cc2c(cc1OCCCn1c(-c3ccccn3)nc3ccccc31)N=C[C@@H]1CCCN1C2=O`, the GI50 is 1.08 µM and the TGI is 3.77 µM.

In the case of `c1cnn2ncc(-c3ccnc(NCCCN4CCOCC4)n3)c2c1`, the GI50 was 7.87 µM and the TGI was above 25 µM.

Turning to `O=C(Nc1ccc(OCc2nnc(-c3ccc(Cl)cc3)o2)c(F)c1)Nc1ccc(Cl)c(C(F)(F)F)c1`, the GI50 was 2.36 µM and the TGI is 7.38 µM.

Regarding `O=C1NC(=O)C(N2C(=O)c3ccccc3C2=O)CC1O` (stereo not given), the GI50 is above 100 µM and the TGI was above 100 µM.

Consider `COc1ccc2c(c1)N(CCO)C1=C(C(=O)OC1)C2c1cccc(F)c1` (stereo not given), for which the GI50 was 1.8 µM and the TGI was above 50 µM.
